Assay results from US20250186326A1, “Anti-Aging Compositions” (PROGELIFE, priority 2022, published 2025).

Key:
[1] = test system: farnesylation of prelamin A; assay: Western blot of prelamin A in human skin fibroblasts (inhibition of farnesylation); format: cell-based; conditions: human skin fibroblasts AG13334, 72 h, Ritonavir 4 μM and Lopinavir 20 μM added
Experimental: (§1) Control Human fibroblast from skin (AG13334) were obtained from Coriell Institute. Cells were maintained in culture according to supplier information at 37° C. in a humidified atmosphere containing 5% CO2.
(§2) Fibroblasts were cultured 72 h without culture-media renewal.
(§3) Pravastatin/Compound II.3a • 14. Pravastatin/Compound II.2 • 15. Pravastatin/Compound I.12 • 16. Pravastatin/Compound II.5
(§4) Ritonavir (4 μM) and Lopinavir (20 μM) were added in all tested conditions to improve the lower limit of detection of prenylated prelamin A in western blots.
(§5) Total fibroblast proteins were extracted after 72 hours treatment in 100 μl of NP40 (Invitrogen) with 1× protease and phosphatase inhibitor cocktail (Life Technologies). Lysates were incubated on ice for 30 minutes, with vortexing at 10-minute intervals. Finally, they were sonicated four times (20 sec each) and then centrifuged at 13000 rpm for 10 minutes at 4° C.
(§6) Protein concentrations were determined with the BCA™ Protein Assay (Life Technologies).
(§7) The following antibodies were used in this study: rabbit monoclonal anti-lamin A/C (ab108922, 1/1000, Abcam, Amsterdam, Netherlands), mouse monoclonal anti-prelamin A (MABT858, Millipore, Molsheim, France), mouse monoclonal anti-HDJ2 (MA5-12748, Thermoscientific, France). Secondary antibodies conjugated with IR-Dye 800CW or 680 were used according to the manufacturer's instructions (926-32213 and 926-68072, 1/5000, Li-COR Biosciences).
(§8) Protein lysates were separated on NuPAGE™ Novex™ 8% Bis-Tris Midi Protein Gels (Life Technologies) and transferred to Immobilon-FL PVDF membranes (Millipore, Molsheim, France). Membranes were blocked for one hour in 1:1 diluted blocking buffer for near fluorescent western blotting (Rockland, Le Perray, France). Blocked membranes were incubated with primary antibody anti-prelamin A overnight at 4° C., following which they were washed and incubated with conjugated secondary antibody for one hour at room temperature. Then, this step was repeated with primary antibodies for HDJ2 and LMNA/C, and conjugated secondary antibodies.
(§9) Bound antibodies were detected and analyzed on an Odyssey imaging system (Li-COR Biosciences, Bad Homburg, Germany) according to the manufacturer's instructions. Revert Protein Stain (Li-COR Biosciences) was used as a total protein loading control.

[2] = test system: farnesylation of HDJ2; assay: Western blot of unfarnesylated HDJ2 in human skin fibroblasts (inhibition of farnesylation); format: cell-based; conditions: human skin fibroblasts AG13334, 72 h, Ritonavir 4 μM and Lopinavir 20 μM added
Experimental: as §1, §2, §3, §4, §5, §6, §7, §8, §9

[3] = test system: wrinkles/fine lines; conditions: 3 ppm pal-KTTKS in moisturizer, topical, 12 weeks, split-face; cited from earlier work
[4] = tested compound combined with Alendronate 10 μM
[5] = tested compound combined with Pravastatin 10 μM
[6] = controls: alendronate and/or pravastatin 10 μM without tested compound

For `Oc1ccc(/C=C/c2cc(O)cc(O)c2)cc1` [Compound I.1a], the “prelamin A band (western blot, FIG. 1)” value [1, 4] was “Clear bands” and the “unfarnesylated HDJ2 band (western blot, FIG. 1)” value (“unfarnesylated HDJ2 band” for short) [2, 4] was “Clear bands”.
For `O=c1c2cc(O)c(O)cc2oc2cc(O)c([C@@H]3O[C@H](CO)[C@@H](O)[C@H](O)[C@H]3O)c(O)c12` [Compound I.6a], the “prelamin A band (western blot, FIG. 1)” value [1, 4] was “Clear bands” and the “unfarnesylated HDJ2 band” value [2, 4] was “Clear bands”.
With `COc1ccc([C@@H]2CC(=O)c3c(O)cc(O[C@@H]4O[C@H](CO)[C@@H](O)[C@H](O)[C@H]4O[C@@H]4O[C@@H](C)[C@H](O)[C@@H](O)[C@H]4O)cc3O2)cc1O` [Compound I.7a] the “prelamin A band (western blot, FIG. 1)” value [1, 4] was “Clear bands” and the “unfarnesylated HDJ2 band” value [2, 4] was “Clear bands”.
In the case of `C[C@@H]1O[C@@H](O[C@H]2[C@H](Oc3cc(O)c4c(c3)O[C@H](c3ccc(O)cc3)CC4=O)O[C@H](CO)[C@@H](O)[C@@H]2O)[C@H](O)[C@H](O)[C@H]1O` [Compound I.8a], the “prelamin A band (western blot, FIG. 1)” value [1, 4] is reported as “Clear bands” and the “unfarnesylated HDJ2 band” value [2, 4] is reported as “Clear bands”.
With `OC[C@H]1O[C@@H](OCCc2ccc(O)cc2)[C@H](O)[C@@H](O)[C@@H]1O` [Compound I.12] the “prelamin A band (western blot, FIG. 1)” value [1, 5] was “Clear bands” and the “unfarnesylated HDJ2 band” value [2, 5] was “Clear bands”.
With `O=c1cc(-c2ccc(O)cc2)oc2cc(O)cc(O)c12` [Compound II.1] the “prelamin A band (western blot, FIG. 1)” value [1, 5] was “Clear bands” and the “unfarnesylated HDJ2 band” value [2, 5] was “Clear bands”.
In the case of `O=C1c2cccc(O)c2C(=O)c2c(O)cc(CO)cc21` [Compound II.2], the “prelamin A band (western blot, FIG. 1)” value [1, 5] is reported as “Clear bands” and the “unfarnesylated HDJ2 band” value [2, 5] is reported as “Clear bands”.
In the case of `Oc1cc(O)c2c(c1)O[C@H](c1ccc(O)c(O)c1)[C@@H](O)C2` [Compound II.3a], the “prelamin A band (western blot, FIG. 1)” value [1, 5] is reported as “Clear bands” and the “unfarnesylated HDJ2 band” value [2, 5] is reported as “Clear bands”.
For `O=c1c(O)c(-c2ccc(O)c(O)c2)oc2cc(O)cc(O)c12` [Compound II.5], the “prelamin A band (western blot, FIG. 1)” value [1, 5] was “Clear bands” and the “unfarnesylated HDJ2 band” value [2, 5] was “Clear bands”.
In the case of `NCCCC(O)(P(=O)(O)O)P(=O)(O)O` [alendronate, reference compound], the “prelamin A band (western blot, FIG. 1)” value [1, 6] is reported as “essentially absent” and the “unfarnesylated HDJ2 band” value [2, 6] is reported as “essentially absent”.
In the case of “palmitoyl-lysine-threonine-threonine-lysine-serine [pal-KTTKS]”, the “reduction in wrinkles/fine lines vs. placebo control (quantitative technical and expert grader image analysis)” value [3] is listed as “significant improvement”.
